Test results from US9718869B2, “Peptide-based compounds and uses thereof to treat beta-amyloid accumulation” (MANUS PHARMACEUTICALS (CANADA) LTD., priority 2012, dated 2017).
Values joined by “and” are separate entries in the source; they are usually repeats but may differ in a detail not shown here. Equal values may be shown once. “Also recorded” adds a separate entry of the source. Read-outs that look alike come from different tables or passages of the source. No end group written: not given here.

Tests used:
bulbectomized mice = assay: Morris water maze spatial memory test, bulbectomized mice immunized with (FR-3-NP-1)2-Lys-OH / (R-2-FR-3-NP-1)2-Lys-OH in IFA (Example 3); type: in vivo, NMRI mice; conditions: four immunizations with IFA; for Number of visits to the training/rescue compartment (in words) / Time spent in the training/rescue compartment (in words): BE mice
Procedure: Immunization was carried out in four stages.
Each group consisted of 5-8 mice.

sham operated (SO) mice = conditions: mouse, in vivo
Procedure: Experiments were performed on NMRI mice weighing 20-30 g. Initiation of Alzheimer's type neurodegenerative process was caused by the removal of the animal's olfactory bulb (bulbectomy). The operation was performed under sterile conditions under nembutal anesthesia (40 mg/kg). For local anaesthesia during scalping, a subcutaneous injection of 0.5% solution of novocaine was used. […] A group of animals to serve as control was sham-operated (SO); these animals were subjected to the same procedure but without removal of the olfactory bulbs. After surgery all animals were injected with “Bitsillin 5” antibiotic into the muscles of the hind paw at a dose of 6000 units for the prevention of infection. Upon completion of behavioral experiments, morphological studies of animal brains were conducted to ensure complete removal of olfactory bulbs.
The state of spatial memory was assessed after mice had developed spatial skills in the Morris water maze, which combines training in the formation of active avoidance and the ability to navigate in space. This method enables separate evaluation of learning and memory.
The experimental chamber was a plastic pool of dimensions 100×60×30 cm, filled with water at a temperature of 23 degrees Celsius. […] The water was clouded with milk so that animals could not visually detect the rescue platform.
All mice were pre-tested for the ability to swim and absence of an original sector preference in the water maze. The goal of the education was to have mice in one minute find the underwater platform and remember its location. Training was conducted in four sessions every day for five days, and the latency period for finding the platform was recorded for every session. 24 hours after completion of training, the level of the animal's spatial memory in the absence of a rescue platform was tested for one minute. Two indicators were used in analyzing the results: the number of visits to each sector of the maze and time spent in each sector.
Two-factor analysis (general ANOVA) was used for statistical analysis of behavioral data. Post-hoc analysis was performed using the criterion of LSD (least significant difference). The reliability of the results was also evaluated using two-tailed Student's t-test.

β-amyloid (1-40) [1] = assay: ELISA of β-amyloid (1-40) in brain (cortex+hippocampus) of bulbectomized immunized mice; type: in vivo, NMRI mice; conditions: for Average level of βA / Individual levels of βA: BE (bulbectomized) mice, cortex+hippocampus; for Individual levels of βA: one value per mouse
Procedure: (§1) To collect brain structures to determine the biochemical level of β-amyloid, mice were decapitated and the brain was removed in the cold. The cortex was removed by scalpel from both hemispheres, the hippocampus was bilaterally removed, the probes were placed in labeled plastic test tubes that were frozen at −80° C. and stored in a freezer until the biochemical study of the level of β-amyloid.
(§2) Biochemical identification of β-amyloid (1-40) by enzyme immunoassay was performed as follows: samples of the cortex and hippocampus, which were stored at −80° C. after collection, were weighed, thawed at room temperature, and then homogenized in a solution of 2% CHAPS 20 mM Tris-HCl (pH 7.7) in the presence of protease inhibitors (10 μg/ml leupeptin, 10 μg/ml aprotinin and 10 μg/ml AEBSF) in a volume calculated for each sample (4 ml of solution per 1 g of tissue), using a RT-12 tissue microgrinder in a glass beaker for the homogenization using a ground-glass pestle. Homogenates were centrifuged at 21,000 g at 4° C. for 30 min. Selected supernatants were stored at −80° C. and thawed immediately prior to the immunoassay analysis.
Another part of the samples were homogenized in 5 M guanidine-HCl solution of 50 mM Tris-HCl (pH 8.0), in a volume calculated for each sample (400 mcl of solution per 50 mg of tissue). The samples were stirred for 3-4 hours at room temperature, then diluted in BSAT-DPBS (5% BSA, 0.03% Tween-20) buffer, centrifuged at 21,000 g at 4° C. for 30 min, after which the supernatants were collected.
The immunosorbent assay was performed using the instructions on the ELISA for the determination of β-amyloid (1-40) (Aβ40) mouse (ELISA kit mouse Aβ40, Invitrogen).
After testing the memory of all groups of animals, brain perfusion was carried out in the cold under deep anaesthesia, and individual samples of brain tissue (cortex+hippocampus) were collected, which were stored in a freezer at a temperature of −80° C. until biochemical studies.

β-amyloid (1-40) [2] = conditions: mouse, in vivo
Procedure: as §1, §2
Another part of the samples were homogenized in 5 M guanidine-HCl solution of 50 mM Tris-HCl (pH 8.0), in a volume calculated for each sample (400 mcl of solution per 50 mg of tissue). […]

bulbectomized (BE) mice [3] = assay: Morris water maze spatial memory test, bulbectomized mice immunized with NP-1 / R-1-NP-1 in IFA (Example 1); type: in vivo, NMRI mice; conditions: for Ratio of sector visits to total number of all visits, sector 1 / Ratio of sector visits to total number of all visits, sector 2 / Ratio of sector visits to total number of all visits, sector 3 (training sector with platform) / Ratio of sector visits to total number of all visits, sector 4 / Time spent in sector 1 / Time spent in sector 2 / Time spent in sector 3 (training sector with platform) / Time spent in sector 4: BE (bulbectomized) mice, 4 immunizations with IFA, 1 min memory test; for Effect of immunization on spatial memory of BE mice (in words): immunization with IFA, no complete Freund's adjuvant
Procedure: The immunization was carried out in four stages.
This method enables separate evaluation of learning and memory.

bulbectomized (BE) mice [4] = assay: Morris water maze spatial memory test, bulbectomized mice immunized with KLH conjugates of NP-1 fragments (Example 2); type: in vivo, NMRI mice; conditions: KLH conjugate, 1st immunization CFA, 2nd IFA, 0.1 mg/mouse
Procedure: NMRI mice (see Example 1) were immunized with peptides conjugated to snail keyhole limpet hemocyanin (KLH).
In this study, a scheme with a double introduction of peptides into mice with complete Freund's adjuvant (CFA) for the first immunization and incomplete Freund's adjuvant (IFA) for the second immunization was used. Between the first and second immunization a bulbectomy was performed. After the second immunization, one month after bulbectomy, the mice's state of spatial memory was tested, after which the mice were put down and their blood and cerebrospinal fluid were collected to determine their level of antipeptide antibodies.
To prepare the peptide conjugates with KLH, 0.75 mg of peptide was dissolved in 0.65 ml of KLH in PBS with a protein concentration of 5.8 mg/ml and stirred for an hour while adding 38 μl of 2.5% glutaraldehyde solution in PBS. The resulting solution was stirred for 15 hours and dialyzed against PBS for 20 hours.
Tables 12 and 13 present the results of statistical analysis of spatial memory test data using univariate analysis (one-way ANOVA), to judge the ability of the animal to distinguish sections of the Morris water maze.

[5] = system: animals with experimentally induced AD; conditions: cited from earlier work

(cyclo(Ala-Glu)(Trp-Ser-Glu-Arg-Phe-Tyr-Glu-Cys-Cys-Lys-Glu))2-Lys-OH ({cyclo(Ala-Glu)}-WSERFYECCKEK-OH; cysteine pairing not given here; also: dimer: two chains joined on Lys-OH) [(R-2-FR-3-NP-1)2-Lys-OH]
Number of visits to the training/rescue compartment (in words) (bulbectomized mice): preferred the second and third compartments | Time spent in the training/rescue compartment (in words) (bulbectomized mice): selected the third compartment with statistical significance

cyclo(Ala-Glu)-Trp-(Glu-Trp-Asp-Leu-Val-Gly-Ile-Pro-Gly-Lys-Arg-Ser-Glu-Arg-Phe-Tyr-Cys-Cys-Lys-Glu) ({cyclo(Ala-Glu)}-WEWDLVGIPGKRSERFYCCKE; cysteine pairing not given here) [R-1-NP-1]
Ratio of sector visits to total number of all visits, sector 1 (sham operated (SO) mice): 12.4 ± 2.7 percentage | Ratio of sector visits to total number of all visits, sector 2 (sham operated (SO) mice): 26 ± 2.86 percentage | Ratio of sector visits to total number of all visits, sector 3 (training sector with platform) (sham operated (SO) mice): 40 ± 2.19 percentage | Ratio of sector visits to total number of all visits, sector 4 (sham operated (SO) mice): 22.2 ± 3.18 percentage | Time spent in sector 1 (sham operated (SO) mice): 7.2 ± 1.83 s | Time spent in sector 2 (sham operated (SO) mice): 14 ± 2.43 s | Time spent in sector 3 (training sector with platform) (sham operated (SO) mice): 30.41 ± 2.42 s | Time spent in sector 4 (sham operated (SO) mice): 8.4 ± 1.96 s | Change of βA level versus non-immunized BE mice (in words) (β-amyloid (1-40) [1]): significant reduction of β-amyloid | Average level of βA (β-amyloid (1-40) [1]): 2.985 ± 0.2 ng/g tissue | Individual levels of βA (β-amyloid (1-40) [1]): 2.525 ng/g tissue and 3.704 ng/g tissue and 3.705 ng/g tissue and 2.398 ng/g tissue and 2.91 ng/g tissue and 2.77 ng/g tissue and 2.882 ng/g tissue | Average level of βA (β-amyloid (1-40) [2]): 2.78 ± 0.21 ng/g tissue | Ratio of sector visits to total number of all visits, sector 1 (bulbectomized (BE) mice [3]): 20.67 ± 2.2 percentage | Ratio of sector visits to total number of all visits, sector 2 (bulbectomized (BE) mice [3]): 27 ± 1.46 percentage | Ratio of sector visits to total number of all visits, sector 3 (training sector with platform) (bulbectomized (BE) mice [3]): 34.33 ± 2.44 percentage | Ratio of sector visits to total number of all visits, sector 4 (bulbectomized (BE) mice [3]): 18.17 ± 1.49 percentage | Time spent in sector 1 (bulbectomized (BE) mice [3]): 12.17 ± 2.06 s | Time spent in sector 2 (bulbectomized (BE) mice [3]): 13.67 ± 1.5 s | Time spent in sector 3 (training sector with platform) (bulbectomized (BE) mice [3]): 25.33 ± 4.02 s | Time spent in sector 4 (bulbectomized (BE) mice [3]): 8.83 ± 1.85 s | Effect of immunization on spatial memory of BE mice (in words) (bulbectomized (BE) mice [3]): showed improvement of spatial memory; also recorded: resulted in improved memory; also recorded: protects the spatial memory; also recorded: led to memory protection

EWDLVGIPGKRSERFY [FR-1-NP-1]
Ratio of sector visits to total number of all visits, sector 1 (bulbectomized (BE) mice [4]): 22.17 ± 2.63 percentage | Ratio of sector visits to total number of all visits, sector 2 (bulbectomized (BE) mice [4]): 30.17 ± 1.49 percentage | Ratio of sector visits to total number of all visits, sector 3 (training sector with platform) (bulbectomized (BE) mice [4]): 30.83 ± 2.32 percentage | Ratio of sector visits to total number of all visits, sector 4 (bulbectomized (BE) mice [4]): 18.33 ± 1.74 percentage | Time spent in sector 1 (bulbectomized (BE) mice [4]): 15.83 ± 2.88 s | Time spent in sector 2 (bulbectomized (BE) mice [4]): 17.0 ± 2.21 s | Time spent in sector 3 (training sector with platform) (bulbectomized (BE) mice [4]): 18.33 ± 2.04 s | Time spent in sector 4 (bulbectomized (BE) mice [4]): 8.83 ± 0.7 s

Ser-Glu-Arg-Phe-Tyr-Glu-Cys-Cys-Lys-Glu-Lys(Ser-Glu-Arg-Phe-Tyr-Glu-Cys-Cys-Lys-Glu)-OH [(FR-3-NP-1)2-Lys-OH]
Number of visits to the training/rescue compartment (in words) (bulbectomized mice): much worse | Time spent in the training/rescue compartment (in words) (bulbectomized mice): much worse | Effect of immunization on spatial memory of BE mice (in words) (bulbectomized mice): only a slight tendency towards improvement of spatial memory

IPGKRSERFY [FR-2-NP-1]
Ratio of sector visits to total number of all visits, sector 1 (bulbectomized (BE) mice [4]): 17.17 ± 2.32 percentage | Ratio of sector visits to total number of all visits, sector 2 (bulbectomized (BE) mice [4]): 34.5 ± 2.05 percentage | Ratio of sector visits to total number of all visits, sector 3 (training sector with platform) (bulbectomized (BE) mice [4]): 35.51 ± 2.64 percentage | Ratio of sector visits to total number of all visits, sector 4 (bulbectomized (BE) mice [4]): 13.67 ± 2.53 percentage | Time spent in sector 1 (bulbectomized (BE) mice [4]): 12.33 ± 2.38 s | Time spent in sector 2 (bulbectomized (BE) mice [4]): 18.33 ± 1.82 s | Time spent in sector 3 (training sector with platform) (bulbectomized (BE) mice [4]): 20.1 ± 1.86 s | Time spent in sector 4 (bulbectomized (BE) mice [4]): 8.33 ± 1.98 s

SERFYECCKE (cysteine pairing not given here) [FR-3-NP-1]
Ratio of sector visits to total number of all visits, sector 1 (bulbectomized (BE) mice [4]): 20.75 ± 1.25 percentage | Ratio of sector visits to total number of all visits, sector 2 (bulbectomized (BE) mice [4]): 26.25 ± 2.95 percentage | Ratio of sector visits to total number of all visits, sector 3 (training sector with platform) (bulbectomized (BE) mice [4]): 32.0 ± 4.3 percentage | Ratio of sector visits to total number of all visits, sector 4 (bulbectomized (BE) mice [4]): 21.0 ± 2.38 percentage | Time spent in sector 1 (bulbectomized (BE) mice [4]): 13.0 ± 1.91 s | Time spent in sector 2 (bulbectomized (BE) mice [4]): 13.75 ± 2.1 s | Time spent in sector 3 (training sector with platform) (bulbectomized (BE) mice [4]): 25.25 ± 3.47 s | Time spent in sector 4 (bulbectomized (BE) mice [4]): 8.0 ± 1.58 s

EWDLVGIPGKRSERFYECCKE (cysteine pairing not given here) [NP-1, 2372355, reference compound]
Ratio of sector visits to total number of all visits, sector 1 (sham operated (SO) mice): 14.5 ± 1.89 percentage | Ratio of sector visits to total number of all visits, sector 2 (sham operated (SO) mice): 27.5 ± 2.1 percentage | Ratio of sector visits to total number of all visits, sector 3 (training sector with platform) (sham operated (SO) mice): 40.75 ± 3.15 percentage | Ratio of sector visits to total number of all visits, sector 4 (sham operated (SO) mice): 18 ± 2.08 percentage | Time spent in sector 1 (sham operated (SO) mice): 10.5 ± 2.25 s | Time spent in sector 2 (sham operated (SO) mice): 13 ± 1.68 s | Time spent in sector 3 (training sector with platform) (sham operated (SO) mice): 27.5 ± 1.5 s | Time spent in sector 4 (sham operated (SO) mice): 9 ± 1.58 s | Change of βA level versus non-immunized BE mice (in words) (β-amyloid (1-40) [1]): significant reduction of β-amyloid | Average level of βA (β-amyloid (1-40) [1]): 2.44 ± 0.38 ng/g tissue | Individual levels of βA (β-amyloid (1-40) [1]): 3.039 ng/g tissue and 2.316 ng/g tissue and 3.324 ng/g tissue and 1.115 ng/g tissue and 2.408 ng/g tissue | Average level of βA (β-amyloid (1-40) [2]): 3.22 ± 0.38 ng/g tissue | Brain levels of βA (in words) ([5]; animals with experimentally induced AD): prevented an increase in brain levels of βA | Antibodies produced by immunization (in words) ([5]; in vivo): produced antibodies capable of binding to the type α7 AChRs | Spatial memory in healthy animals (in words) ([5]; in vivo): did not lead to deterioration of spatial memory | Ratio of sector visits to total number of all visits, sector 1 (bulbectomized (BE) mice [3]): 26.6 ± 1.54 percentage | Ratio of sector visits to total number of all visits, sector 2 (bulbectomized (BE) mice [3]): 27.8 ± 2.06 percentage | Ratio of sector visits to total number of all visits, sector 3 (training sector with platform) (bulbectomized (BE) mice [3]): 24.2 ± 0.49 percentage | Ratio of sector visits to total number of all visits, sector 4 (bulbectomized (BE) mice [3]): 21.2 ± 1.6 percentage | Time spent in sector 1 (bulbectomized (BE) mice [3]): 17 ± 0.84 s | Time spent in sector 2 (bulbectomized (BE) mice [3]): 15.2 ± 1.69 s | Time spent in sector 3 (training sector with platform) (bulbectomized (BE) mice [3]): 16 ± 11.14 s | Time spent in sector 4 (bulbectomized (BE) mice [3]): 11.8 ± 1.91 s | Effect of immunization on spatial memory of BE mice (in words) (bulbectomized (BE) mice [3]): not capable of recalling the training sector; also recorded: did not improve their memory; also recorded: did not show protective activity; also recorded: did not exhibit memory protection
